Results from patent publication US12187723B2 (BRISTOL-MYERS SQUIBB COMPANY, priority 2019, dated 2025).

Each compound was assayed against T1, human TLR7 (Homo sapiens, UniProt Q9NYK1) (assay: TLR7 inhibition reporter assay (HEK-Blue SEAP)). Conditions: HEK-Blue cells overexpressing human TLR7, gardiquimod 7.5 μM, 22 hour incubation.
T1 construct: host or cells: HEK-Blue cells
T1 sequence (Q9NYK1 27-1049): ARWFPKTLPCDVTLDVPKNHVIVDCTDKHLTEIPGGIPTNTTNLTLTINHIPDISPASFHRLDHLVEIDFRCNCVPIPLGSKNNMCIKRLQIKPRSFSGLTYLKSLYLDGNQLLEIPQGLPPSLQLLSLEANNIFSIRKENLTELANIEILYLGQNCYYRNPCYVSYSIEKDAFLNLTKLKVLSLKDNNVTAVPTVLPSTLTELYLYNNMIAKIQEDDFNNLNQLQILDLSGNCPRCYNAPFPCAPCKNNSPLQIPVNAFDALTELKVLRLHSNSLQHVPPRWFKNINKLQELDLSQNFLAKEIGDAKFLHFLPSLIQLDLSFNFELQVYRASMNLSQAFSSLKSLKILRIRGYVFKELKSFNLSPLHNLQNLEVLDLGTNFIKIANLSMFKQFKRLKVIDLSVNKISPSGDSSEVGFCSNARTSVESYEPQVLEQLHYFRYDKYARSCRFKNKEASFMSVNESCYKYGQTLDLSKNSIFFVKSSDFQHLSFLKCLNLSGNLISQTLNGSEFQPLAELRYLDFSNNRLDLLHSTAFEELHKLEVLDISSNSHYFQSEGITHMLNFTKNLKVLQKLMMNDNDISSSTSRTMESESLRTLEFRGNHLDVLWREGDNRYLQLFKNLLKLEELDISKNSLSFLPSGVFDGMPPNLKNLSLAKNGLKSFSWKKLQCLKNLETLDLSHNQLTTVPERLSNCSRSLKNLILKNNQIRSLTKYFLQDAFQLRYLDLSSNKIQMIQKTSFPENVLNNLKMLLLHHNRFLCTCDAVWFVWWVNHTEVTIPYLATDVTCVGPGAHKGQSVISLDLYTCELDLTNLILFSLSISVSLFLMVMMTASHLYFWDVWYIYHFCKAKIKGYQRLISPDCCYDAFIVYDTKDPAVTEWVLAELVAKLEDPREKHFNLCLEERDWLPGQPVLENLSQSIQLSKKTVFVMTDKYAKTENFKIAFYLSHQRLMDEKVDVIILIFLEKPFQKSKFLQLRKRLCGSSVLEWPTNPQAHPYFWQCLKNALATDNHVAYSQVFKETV
Format: cell-based
How it was run: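 Dose-response testing from 0.05 nM to 50 μM final was done on reporter cells for 22 hours at 37° C. Secreted SEAP was then detected, and inhibition was calculated as percent reduction of the agonist-plus-DMSO signal compared with wells given a known inhibitor.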

IC50 | SMILES
5.96 nM | COc1cc(-c2cc3[nH]c(=O)n(C4CCC(N5CC6(C5)CS(=O)(=O)C6)CC4)c3cc2C(C)C)cn2ncnc12 (single isomer, unassigned) [Example 245, 1-(4-(2,2-dioxido-2-thia-6-azaspiro[3.3]heptan-6-yl)cyclohexyl)-6-isopropyl-5-(8-methoxy-[1,2,4]triazolo[1,5-a]pyridin-6-yl)-1,3-dihydro-2H-benzo[d]imidazol-2-one]
2.81 nM | COc1cc(-c2cc3[nH]c(=O)n(C4CCC(N5CCC(F)(F)CC5)CC4)c3cc2C(C)C)cn2ncnc12 (single isomer, unassigned) [Example 246, 1-(4-(4,4-difluoropiperidin-1-yl)cyclohexyl)-6-isopropyl-5-(8-methoxy-[1,2,4]triazolo[1,5-a]pyridin-6-yl)-1,3-dihydro-2H-benzo[d]imidazol-2-one]
30.2 nM | COc1cc(-c2cc3[nH]c(=O)n(C4CCC(N5CCC(F)(F)CC5)CC4)c3cc2C(C)C)cn2ncnc12 (single isomer, unassigned) [Example 247, 1-(4-(4,4-difluoropiperidin-1-yl)cyclohexyl)-6-isopropyl-5-(8-methoxy-[1,2,4]triazolo[1,5-a]pyridin-6-yl)-1,3-dihydro-2H-benzo[d]imidazol-2-one]
1.12 nM | COc1cc(-c2cc3[nH]c(=O)n(C4CCC(N(C)CCC(F)(F)F)CC4)c3cc2C(C)C)cn2ncnc12 (single isomer, unassigned) [Example 248, 6-isopropyl-5-(8-methoxy-[1,2,4]triazolo[1,5-a]pyridin-6-yl)-1-(4-(methyl(3,3,3-trifluoropropyl)amino)cyclohexyl)-1,3-dihydro-2H-benzo[d]imidazol-2-one]
0.5 nM | COc1cc(-c2cc3[nH]c(=O)n(C4CCC(N(C)CCC(F)(F)F)CC4)c3cc2C(C)C)cn2ncnc12 (single isomer, unassigned) [Example 249, 6-isopropyl-5-(8-methoxy-[1,2,4]triazolo[1,5-a]pyridin-6-yl)-1-(4-(methyl(3,3,3-trifluoropropyl)amino)cyclohexyl)-1,3-dihydro-2H-benzo[d]imidazol-2-one]
10.4 nM | COc1c(C)c(-c2cc3[nH]c(=O)n(C4CCC(NCC5(S(C)(=O)=O)CC5)CC4)c3cc2C(C)C)cn2ncnc12 (single isomer, unassigned) [Example 259]
41.5 nM | COc1c(C)c(-c2cc3[nH]c(=O)n(C4CCC(NCC5(S(C)(=O)=O)CC5)CC4)c3cc2C(C)C)cn2ncnc12 (single isomer, unassigned) [Example 260]
15.5 nM | COc1c(C)c(-c2cc3[nH]c(=O)n(C4CCC(N5CCCOCC5)CC4)c3cc2C(C)C)cn2ncnc12 (single isomer, unassigned) [Example 261, 1-(4-(1,4-oxazepan-4-yl)cyclohexyl)-6-isopropyl-5-(8-methoxy-7-methyl-[1,2,4]triazolo[1,5-a]pyridin-6-yl)-1,3-dihydro-2H-benzo[d]imidazol-2-one]
2.3 nM | COc1c(C)c(-c2cc3[nH]c(=O)n(C4CCC(N5CCCOCC5)CC4)c3cc2C(C)C)cn2ncnc12 (single isomer, unassigned) [Example 262, 1-(4-(1,4-oxazepan-4-yl)cyclohexyl)-6-isopropyl-5-(8-methoxy-7-methyl-[1,2,4]triazolo[1,5-a]pyridin-6-yl)-1,3-dihydro-2H-benzo[d]imidazol-2-one]
7.93 nM | COc1c(C)c(-c2cc3[nH]c(=O)n(C4CCC(N5CC(F)C5)CC4)c3cc2C(C)C)cn2ncnc12 (single isomer, unassigned) [Example 263, 1-(4-(3-fluoroazetidin-1-yl)cyclohexyl)-6-isopropyl-5-(8-methoxy-7-methyl-[1,2,4]triazolo[1,5-a]pyridin-6-yl)-1,3-dihydro-2H-benzo[d]imidazol-2-one]
28.4 nM | COc1c(C)c(-c2cc3[nH]c(=O)n(C4CCC(N5CC(F)C5)CC4)c3cc2C(C)C)cn2ncnc12 (single isomer, unassigned) [Example 264, 1-(4-(3-fluoroazetidin-1-yl)cyclohexyl)-6-isopropyl-5-(8-methoxy-7-methyl-[1,2,4]triazolo[1,5-a]pyridin-6-yl)-1,3-dihydro-2H-benzo[d]imidazol-2-one]
2.1 nM | COc1c(C)c(-c2cc3[nH]c(=O)n(C4CCC(N5CCC6(CC5)COC6)CC4)c3cc2C(C)C)cn2ncnc12 (single isomer, unassigned) [Example 267, 1-(4-(2-oxa-7-azaspiro[3.5]nonan-7-yl)cyclohexyl)-6-isopropyl-5-(8-methoxy-7-methyl-[1,2,4]triazolo[1,5-a]pyridin-6-yl)-1,3-dihydro-2H-benzo[d]imidazol-2-one]
15.8 nM | COc1c(C)c(-c2cc3[nH]c(=O)n(C4CCC(N5CCC6(CC5)COC6)CC4)c3cc2C(C)C)cn2ncnc12 (single isomer, unassigned) [Example 268, 1-(4-(2-oxa-7-azaspiro[3.5]nonan-7-yl)cyclohexyl)-6-isopropyl-5-(8-methoxy-7-methyl-[1,2,4]triazolo[1,5-a]pyridin-6-yl)-1,3-dihydro-2H-benzo[d]imidazol-2-one]
5.73 nM | COc1c(C)c(-c2cc3[nH]c(=O)n(C4CCC(N5CC6(COC6)C5)CC4)c3cc2C(C)C)cn2ncnc12 (single isomer, unassigned) [Example 269, 1-(4-(2-oxa-6-azaspiro[3.3]heptan-6-yl)cyclohexyl)-6-isopropyl-5-(8-methoxy-7-methyl-[1,2,4]triazolo[1,5-a]pyridin-6-yl)-1,3-dihydro-2H-benzo[d]imidazol-2-one]
19.3 nM | COc1c(C)c(-c2cc3[nH]c(=O)n(C4CCC(N5CC6(COC6)C5)CC4)c3cc2C(C)C)cn2ncnc12 (single isomer, unassigned) [Example 270, 1-(4-(2-oxa-6-azaspiro[3.3]heptan-6-yl)cyclohexyl)-6-isopropyl-5-(8-methoxy-7-methyl-[1,2,4]triazolo[1,5-a]pyridin-6-yl)-1,3-dihydro-2H-benzo[d]imidazol-2-one]
13.7 nM | Cc1c(-c2cc3[nH]c(=O)n(C4CCC(N5CCC(F)(F)CC5)CC4)c3cc2C(C)C)cn2ncnc2c1C (single isomer, unassigned) [Example 275, 1-(4-(4,4-difluoropiperidin-1-yl)cyclohexyl)-5-(7,8-dimethyl-[1,2,4]triazolo[1,5-a]pyridin-6-yl)-6-isopropyl-1,3-dihydro-2H-benzo[d]imidazol-2-one]
61.7 nM | Cc1c(-c2cc3[nH]c(=O)n(C4CCC(N5CCC(F)(F)CC5)CC4)c3cc2C(C)C)cn2ncnc2c1C (single isomer, unassigned) [Example 276, 1-(4-(4,4-difluoropiperidin-1-yl)cyclohexyl)-5-(7,8-dimethyl-[1,2,4]triazolo[1,5-a]pyridin-6-yl)-6-isopropyl-1,3-dihydro-2H-benzo[d]imidazol-2-one]
2.39 nM | COC1CN(C2CCC(n3c(=O)[nH]c4cc(-c5cn6ncnc6c(C)c5C)c(C(C)C)cc43)CC2)C1 (single isomer, unassigned) [Example 277, 5-(7,8-dimethyl-[1,2,4]triazolo[1,5-a]pyridin-6-yl)-6-isopropyl-1-(4-(3-methoxyazetidin-1-yl)cyclohexyl)-1,3-dihydro-2H-benzo[d]imidazol-2-one]
7.88 nM | COC1CN(C2CCC(n3c(=O)[nH]c4cc(-c5cn6ncnc6c(C)c5C)c(C(C)C)cc43)CC2)C1 (single isomer, unassigned) [Example 278, 5-(7,8-dimethyl-[1,2,4]triazolo[1,5-a]pyridin-6-yl)-6-isopropyl-1-(4-(3-methoxyazetidin-1-yl)cyclohexyl)-1,3-dihydro-2H-benzo[d]imidazol-2-one]

SMILES | IC50
COc1cc(-c2cc3[nH]c(=O)n(C4CCC(N5C6CCC5COC6)CC4)c3cc2C(C)C)cn2ncnc12 (single isomer, unassigned) [Example 252, 1-(4-(3-oxa-8-azabicyclo[3.2.1]octan-8-yl)cyclohexyl)-6-isopropyl-5-(8-methoxy-[1,2,4]triazolo[1,5-a]pyridin-6-yl)-1,3-dihydro-2H-benzo[d]imidazol-2-one] | 40.5 nM
COc1cc(-c2cc3[nH]c(=O)n(C4CCC(N5C6CCC5COC6)CC4)c3cc2C(C)C)cn2ncnc12 (single isomer, unassigned) [Example 253, 1-(4-(3-oxa-8-azabicyclo[3.2.1]octan-8-yl)cyclohexyl)-6-isopropyl-5-(8-methoxy-[1,2,4]triazolo[1,5-a]pyridin-6-yl)-1,3-dihydro-2H-benzo[d]imidazol-2-one] | 4.75 nM
